Where two headings read alike, the source gives them in different places.
Key:
Ovcar443 = experiment: Cell viability, Ovcar443 ovary cancer cells; assay type: cell-based
H2122 = experiment: Cell viability, H2122 lung cancer cells; assay type: cell-based, human; conditions: for IC50: Homo sapiens
A549CK8 = experiment: Cell viability, A549CK8 lung cancer cells; assay type: cell-based, human; conditions: for IC50: Homo sapiens, read-out: IC50 (−LogM) (converted)
miapac = experiment: Cell viability, miapac pancreatic cancer cells; assay type: cell-based, human; conditions: for IC50: Homo sapiens, Pancreatic cancer cell, read-out: IC50 (−LogM) (converted)
Hct116 = experiment: Cell viability, Hct116 colon cancer cells; assay type: cell-based, human; conditions: for IC50: Homo sapiens
H2009 = experiment: Cell viability, H2009 lung cancer cells; assay type: cell-based, human; conditions: for IC50: Homo sapiens
Heb44 = experiment: Cell viability, Heb44 kidney cells; assay type: cell-based
AsPC-1 = experiment: Cell viability, AsPC-1 pancreatic cancer cells; assay type: cell-based, human; conditions: for IC50: Homo sapiens
Sw620 = experiment: Cell viability, Sw620 colon cancer cells; assay type: cell-based, human; conditions: for IC50: Homo sapiens
H2087 = experiment: Cell viability, H2087 lung cancer cells; assay type: cell-based, human; conditions: for IC50: Homo sapiens
H23 = experiment: Cell viability, H23 lung cancer cells; assay type: cell-based, human; conditions: for IC50: Homo sapiens
Hey = experiment: Cell viability, Hey ovary cancer cells; assay type: cell-based
SKOV3 = experiment: Cell viability, SKOV3 ovary cancer cells; assay type: cell-based; conditions: for IC50: Homo sapiens, SK-OV-3
DLD1 = experiment: Cell viability, DLD1 colon cancer cells; assay type: cell-based, human; conditions: for IC50: Homo sapiens
CT116P53 = experiment: Cell viability, CT116P53 colon cancer cells; assay type: cell-based, human; conditions: for IC50: Homo sapiens, read-out: IC50 (−LogM) (converted)
T29Kt1 cells [1] = experiment: cells; conditions: Homo sapiens, T29Kt1, read-out: IC50 in T29k cells, Table 1
H322 cells = experiment: Cell viability, H322 lung cancer cells; assay type: cell-based, human; conditions: for IC50: Homo sapiens
H226B cells = experiment: Cell viability, H226B lung cancer cells; assay type: cell-based, human; conditions: for IC50: Homo sapiens
Ovca429 = experiment: Cell viability, Ovca429 ovary cancer cells; assay type: cell-based
Capanc-1 = experiment: Cell viability, Capanc-1 pancreatic cancer cells; assay type: cell-based, human; conditions: capanc1, Pancrease
Heb46 = experiment: Cell viability, Heb46 kidney cells; assay type: cell-based
H460 cells [2] = experiment: cells; conditions: Homo sapiens
H1933 = experiment: Cell viability, H1933 lung cancer cells; assay type: cell-based, human; conditions: for IC50: Homo sapiens, read-out: IC50 (−LogM) (converted)
HKE3 = experiment: Cell viability, HKE3 colon cancer cells; assay type: cell-based, human; conditions: HKE3, Colon; for IC50: Homo sapiens, read-out: IC50 (−LogM) (converted)
H1299 cells = experiment: Cell viability, H1299 lung cancer cells; assay type: cell-based, human; conditions: for IC50: Homo sapiens
A549 cells = experiment: Cell viability, A549 lung cancer cells; assay type: cell-based, human; conditions: A549, Lung
Ovcar3 = experiment: Cell viability, Ovcar3 ovary cancer cells; assay type: cell-based; conditions: for IC50: Homo sapiens, OVCAR-3
H1395 = experiment: Cell viability, H1395 lung cancer cells; assay type: cell-based, human; conditions: for IC50: Homo sapiens
T29Kt1 cells [3] = conditions: Table 1, value is the negative log10 of mol/L
H460 cells [4] = conditions: H460, Lung
[5] = NCI-H460, read-out: IC50 (−LogM), H460, Lung (converted)
[6] = NCI-H460, read-out: IC50 in H460 cells, Table 1

`OCc1cn(Cc2ccccc2Cl)c2ccccc12` [Oncrasin K006, [1-(2-chlorobenzyl)-1H-indol-3-yl]methanol] showed an IC50 (Ovcar443) of 7.94 µM, an IC50 (H2122; NCI-H2122, H2122, Lung, read-out: IC50 (−LogM) (converted)) of 3.98 µM and an IC50 (A549CK8; A549CK8, Lung) of 3.98 µM. The IC50 (miapac; miapac, Pancrease) was under 31.6 µM, the IC50 (Hct116; HCT-116, Hct116, Colon, read-out: IC50 (−LogM) (converted)) was 0.501 µM and the IC50 (H2009; NCI-H2009, H2009, Lung, read-out: IC50 (−LogM) (converted)) was 31.6 µM. The IC50 (Heb44) was 0.01 µM, the IC50 (AsPC-1; ASPC1, Pancrease, read-out: IC50 (−LogM) (converted)) was 3.98 µM and the IC50 (Sw620; SW-620, Sw620, Colon, read-out: IC50 (−LogM) (converted)) was 10 µM. It also gave an IC50 (H2087; NCI-H2087, H2087, Lung, read-out: IC50 (−LogM) (converted)) of 25.1 µM, an IC50 (H23; NCI-H23, H23, Lung, read-out: IC50 (−LogM) (converted)) of 25.1 µM and an IC50 (Hey) of 31.6 µM. For the same molecule, the IC50 (SKOV3) was 3.98 µM, the IC50 (DLD1; DLD-1, DLD1, Colon, read-out: IC50 (−LogM) (converted)) was under 31.6 µM and the IC50 (CT116P53; CT116P53, Colon) was under 31.6 µM. For the same molecule, the IC50 (T29Kt1 cells [1]) was 2.51 µM, the IC50 (H322 cells; NCI-H322, H322, Lung, read-out: IC50 (−LogM) (converted)) was 31.6 µM and the IC50 (H226B cells; H226B, Lung, first H226B line, read-out: IC50 (−LogM) (converted)) was 0.00251 µM. It also gave an IC50 (H226B cells; H226B, Lung, second H226B line, read-out: IC50 (−LogM) (converted)) of 0.0398 µM, an IC50 (Ovca429) of 10 µM and an IC50 (Capanc-1; Homo sapiens, Pancreatic cancer cell, read-out: IC50 (−LogM) (converted)) of 12.6 µM. It also gave an IC50 (Heb46) of 2 µM, an IC50 (H460 cells [2]; [5]) of 0.1 µM and an IC50 (H460 cells [2]; [6]) of 0.1 µM. It also gave an IC50 (H1933; H1933, Lung) of 15.8 µM, an IC50 (HKE3; first HKE3 line) of 0.126 µM and an IC50 (HKE3; second HKE3 line) of 0.251 µM. The IC50 (H1299 cells; NCI-H1299, h1299, Lung, read-out: IC50 (−LogM) (converted)) was 10 µM, the IC50 (A549 cells; Homo sapiens, read-out: IC50 (−LogM) (converted)) was 12.6 µM and the IC50 (Ovcar3) was 0.631 µM. The IC50 (H1395; NCI-H1395, H1395, Lung, read-out: IC50 (−LogM) (converted)) was 31.6 µM.

In the case of `O=Cc1cn(Cc2ccc(Br)cc2)c2ccccc12` [Oncrasin K029, 1-(4-bromobenzyl)-1H-indole-3-carbaldehyde], the IC50 (Ovcar443) is reported as 10 µM, the IC50 (H2122; NCI-H2122, read-out: IC50 (−LogM) (converted)) is reported as 2 µM and the IC50 (A549CK8) is reported as 3.16 µM. For the same molecule, the IC50 (miapac) was under 31.6 µM, the “IC50 (−LogM)” value (Hct116; Hct116, Colon, listed as OnK29) was 5.5 −LogM and the IC50 (Hct116; HCT-116, read-out: IC50 (−LogM), Hct116, Colon (converted)) was 2.51 µM. For the same molecule, the IC50 (H2009; NCI-H2009, read-out: IC50 (−LogM) (converted)) was under 31.6 µM, the “IC50 (−LogM)” value (Heb44; listed as OnK29) was 7.2 −LogM and the “IC50 (−LogM)” value (Heb44; listed as Onk29) was 8.1 −LogM. The “IC50 (−LogM)” value (AsPC-1; ASPC1, Pancrease, listed as OnK29) was 5.3 −LogM, the IC50 (AsPC-1; ASPC1, read-out: IC50 (−LogM), ASPC1, Pancrease (converted)) was 3.98 µM and the IC50 (Sw620; SW-620, read-out: IC50 (−LogM), Sw620, Colon (converted)) was 31.6 µM. The “IC50 (−LogM)” value (Sw620; Sw620, Colon, listed as OnK29) was >4.5 −LogM, the IC50 (H2087; NCI-H2087, read-out: IC50 (−LogM) (converted)) was 31.6 µM and the IC50 (H23; NCI-H23, read-out: IC50 (−LogM) (converted)) was 31.6 µM. For the same molecule, the IC50 (Hey) was 31.6 µM, the IC50 (SKOV3) was 3.16 µM and the IC50 (DLD1; DLD-1, read-out: IC50 (−LogM) (converted)) was under 31.6 µM. For the same molecule, the IC50 (CT116P53) was under 31.6 µM, the IC50 (H322 cells; NCI-H322, read-out: IC50 (−LogM) (converted)) was 31.6 µM and the “IC50 (−LogM)” value (H226B cells; H226B, Lung, first H226B line, listed as Onk29) was 7.1 −LogM. The “IC50 (−LogM)” value (H226B cells; H226B, Lung, second H226B line, listed as Onk29) was 5.5 −LogM, the IC50 (H226B cells; read-out: IC50 (−LogM), H226B, Lung, first H226B line (converted)) was 0.126 µM and the IC50 (H226B cells; read-out: IC50 (−LogM), H226B, Lung, second H226B line (converted)) was 5.01 µM. For the same molecule, the IC50 (Ovca429) was 3.16 µM, the “IC50 (−LogM)” value (Capanc-1; listed as OnK29) was 5 −LogM and the “IC50 (−LogM)” value (Capanc-1; listed as Onk29) was 6 −LogM. The “IC50 (−LogM)” value (Heb46; listed as OnK29) was 5.6 −LogM, the “IC50 (−LogM)” value (Heb46; listed as Onk29) was 6.6 −LogM and the IC50 (H460 cells [2]; [5]) was 0.00316 µM. For the same molecule, the IC50 (H460 cells [2]; [6]) was 0.00316 µM, the IC50 (H1933) was 31.6 µM and the “IC50 (−LogM)” value (HKE3; first HKE3 line, listed as OnK29) was 6.6 −LogM. The “IC50 (−LogM)” value (HKE3; first HKE3 line, listed as Onk29) was 7 −LogM, the “IC50 (−LogM)” value (HKE3; second HKE3 line, listed as OnK29) was 5.8 −LogM and the “IC50 (−LogM)” value (HKE3; second HKE3 line, listed as Onk29) was 6.3 −LogM. The “IC50 in T29k cells” value (T29Kt1 cells [3]; listed as K29) was 6.6, the “IC50 in T29k cells” value (T29Kt1 cells [3]) was 5 and the IC50 (H1299 cells; NCI-H1299, read-out: IC50 (−LogM), h1299, Lung (converted)) was 12.6 µM. The “IC50 (−LogM)” value (H1299 cells; h1299, Lung, listed as OnK29) was 5.1 −LogM, the “IC50 (−LogM)” value (A549 cells; listed as OnK29) was 5 −LogM and the “IC50 (−LogM)” value (A549 cells; listed as Onk29) was >4.5 −LogM. For the same molecule, the IC50 (Ovcar3) was 5.01 µM and the IC50 (H1395; NCI-H1395, read-out: IC50 (−LogM) (converted)) was 31.6 µM.

For `OCc1cn(Cc2ccc(Br)cc2)c2ccccc12` [Oncrasin K73, 1H-Indole-3-methanol, 1-{(4-bromophenyl)methyl]-(9CI)], the “IC50 (−LogM)” value (Ovcar443) was 4.8 −LogM, the “IC50 (−LogM)” value (H2122; H2122, Lung) was 5.6 −LogM and the “IC50 (−LogM)” value (A549CK8; A549CK8, Lung) was 5.5 −LogM. For the same molecule, the “IC50 (−LogM)” value (miapac; miapac, Pancrease) was >4.5 −LogM, the “IC50 (−LogM)” value (Hct116; Hct116, Colon) was 5.5 −LogM and the “IC50 (−LogM)” value (H2009; H2009, Lung) was >4.5 −LogM. For the same molecule, the “IC50 (−LogM)” value (Heb44) was 7.4 −LogM, the “IC50 (−LogM)” value (AsPC-1; ASPC1, Pancrease) was 5.5 −LogM and the “IC50 (−LogM)” value (Sw620; Sw620, Colon) was >4.5 −LogM. For the same molecule, the “IC50 (−LogM)” value (H2087; H2087, Lung) was 4.5 −LogM, the “IC50 (−LogM)” value (H23; H23, Lung) was 4.5 −LogM and the “IC50 (−LogM)” value (Hey) was 4.5 −LogM. The “IC50 (−LogM)” value (SKOV3) was 5.5 −LogM, the “IC50 (−LogM)” value (DLD1; DLD1, Colon) was >4.5 −LogM and the “IC50 (−LogM)” value (CT116P53; CT116P53, Colon) was >4.5 −LogM. For the same molecule, the “IC50 (−LogM)” value (H322 cells; H322, Lung) was >4.5 −LogM, the “IC50 (−LogM)” value (H226B cells; H226B, Lung, first H226B line) was 7 −LogM and the “IC50 (−LogM)” value (H226B cells; H226B, Lung, second H226B line) was 5.8 −LogM. The “IC50 (−LogM)” value (Ovca429) was 5.5 −LogM, the “IC50 (−LogM)” value (Capanc-1) was 5.5 −LogM and the “IC50 (−LogM)” value (Heb46) was 6.1 −LogM. For the same molecule, the “IC50 (−LogM)” value (H1933; H1933, Lung) was 4.5 −LogM, the “IC50 (−LogM)” value (HKE3; first HKE3 line) was 6.5 −LogM and the “IC50 (−LogM)” value (HKE3; second HKE3 line) was 6.1 −LogM. For the same molecule, the “IC50 in T29k cells” value (T29Kt1 cells [3]) was 6.4, the “IC50 (−LogM)” value (H1299 cells; h1299, Lung) was >4.5 −LogM and the “IC50 (−LogM)” value (A549 cells) was >4.5 −LogM. For the same molecule, the “IC50 (−LogM)” value (H460 cells [4]) was 8.5 −LogM, the “IC50 (−LogM)” value (Ovcar3) was 5.9 −LogM and the “IC50 (−LogM)” value (H1395; H1395, Lung) was >4.5 −LogM.

Source: patent US8883841B2, “Oncogenic ras-specific cytotoxic compound and methods of use thereof” (The Board of Regents of the University of Texas System, priority 2005, dated 2014)
